{
  "source": "patent US11231416B2",
  "about": "“Virus-like particle (VLP) based small molecule-protein interaction trap” (VIB VZW, priority 2015, dated 2022)",
  "assay_in_all_cases": "Viral trapping in VLPs, MS analysis",
  "type_in_all_cases": "binding",
  "key": {"[1]": {"biological_target": "T1, ZMPSTE24 (Homo sapiens, UniProt O75844)", "T1 construct": "endogenous in cells; host or cells: HEK293T", "T1 sequence (O75844 whole entry)": "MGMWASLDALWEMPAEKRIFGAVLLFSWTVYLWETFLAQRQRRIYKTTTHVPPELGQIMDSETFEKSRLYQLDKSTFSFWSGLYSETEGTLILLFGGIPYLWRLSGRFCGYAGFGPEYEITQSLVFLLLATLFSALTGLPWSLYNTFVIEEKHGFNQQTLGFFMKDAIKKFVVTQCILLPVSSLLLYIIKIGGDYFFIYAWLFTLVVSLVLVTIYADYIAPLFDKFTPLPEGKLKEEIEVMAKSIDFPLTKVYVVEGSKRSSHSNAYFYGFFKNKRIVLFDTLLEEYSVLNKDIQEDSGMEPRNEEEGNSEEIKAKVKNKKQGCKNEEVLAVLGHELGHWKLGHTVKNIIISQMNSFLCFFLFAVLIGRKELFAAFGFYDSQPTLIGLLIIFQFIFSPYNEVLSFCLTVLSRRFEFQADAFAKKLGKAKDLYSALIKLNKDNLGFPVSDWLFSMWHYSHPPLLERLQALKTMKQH", "conditions": "all proteins (incl. low confidence identifications)", "protocol": "(§1) For mass spectrometry, 10^7 HEK293T cells were seeded in five flasks (75 cm^2) and transfected the next day with a total of 15 μg DNA per flask using polyethylene imine reagent. The following DNA quantities were used per flask: 7.5 μg of GAG-eDHFR, 5.4 μg of mock vector and 2.1 μg of a 50/50 mix of pMD2.G and pcDNA3-FLAG-VSV-G. The small molecule fusions were added immediately after transfection to the producing cells at a concentration of 1 μM. The same dilution of dimethyl sulfoxide (DMSO) was added in control experiments to control the effect of this chemical on the cells. The cellular supernatant was harvested after 32 hours and was centrifuged for 3 minutes at 450×g to remove cellular debris. The cleared supernatant was then filtered using 0.45 μm filters (Millipore). A total of 100 μl MyOne™ Streptavidin T1 beads (Life Technologies) pre-loaded with 10 μg ANTI-FLAG® BioM2-Biotin antibody (Sigma-Aldrich®) was used to bind the tagged particles. Particles were allowed to bind for 2 hours by end-over-end rotation. The total supernatant was processed in three consecutive binding steps. Bead-particle complexes were washed once with washing buffer (TWB: 20 mM Tris-HCl pH 7.5, 150 mM NaCl) and were then eluted with FLAG peptide (200 μg/ml in TWB) and lysed by addition of SDS to a final concentration of 0.1%. After 5 minutes, SDS was removed using HiPPR Detergent Removal Spin Columns (Pierce, Thermo Scientific) followed by boiling and overnight digestion with 0.5 μg sequence-grade trypsin (Promega). After acidification (0.1% TFA final), the peptides were separated by nano-LC and directly analyzed with a Q Exactive instrument (Thermo Scientific).\n(§2) For tamoxifen, four biological repeats were performed where the cells were treated with MTX-PEG6-tamoxifen after transfection. The obtained protein lists after viral trapping and MS analysis were challenged with protein lists coming from the four DMSO controls, the 19 control experiments and the lists obtained for the MTX-PEG6-simvastatin and MTX-PEG6-reversine (see below) for a total of 30 samples."}, "[2]": {"biological_target": "T2, ENPP4 (Homo sapiens, UniProt Q9Y6X5)", "T2 construct": "endogenous in cells; host or cells: HEK293T", "T2 sequence (Q9Y6X5 16-453)": "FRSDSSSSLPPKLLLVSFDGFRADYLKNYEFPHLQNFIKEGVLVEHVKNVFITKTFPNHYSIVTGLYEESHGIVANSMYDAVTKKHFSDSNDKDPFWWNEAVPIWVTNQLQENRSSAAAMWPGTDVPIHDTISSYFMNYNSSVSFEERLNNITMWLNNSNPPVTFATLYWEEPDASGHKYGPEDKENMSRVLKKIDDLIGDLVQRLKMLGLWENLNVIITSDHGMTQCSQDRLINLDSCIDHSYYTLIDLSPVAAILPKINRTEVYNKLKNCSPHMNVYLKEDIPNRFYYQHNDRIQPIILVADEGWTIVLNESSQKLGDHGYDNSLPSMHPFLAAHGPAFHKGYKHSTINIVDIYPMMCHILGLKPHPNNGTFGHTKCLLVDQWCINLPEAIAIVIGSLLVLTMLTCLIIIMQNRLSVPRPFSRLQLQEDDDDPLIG", "conditions": "all proteins (incl. low confidence identifications)", "protocol": "as §1, §2"}, "[3]": {"biological_target": "T3, HSD17B4 (Homo sapiens, UniProt P51659)", "T3 construct": "endogenous in cells; host or cells: HEK293T", "T3 sequence (P51659 1-736)": "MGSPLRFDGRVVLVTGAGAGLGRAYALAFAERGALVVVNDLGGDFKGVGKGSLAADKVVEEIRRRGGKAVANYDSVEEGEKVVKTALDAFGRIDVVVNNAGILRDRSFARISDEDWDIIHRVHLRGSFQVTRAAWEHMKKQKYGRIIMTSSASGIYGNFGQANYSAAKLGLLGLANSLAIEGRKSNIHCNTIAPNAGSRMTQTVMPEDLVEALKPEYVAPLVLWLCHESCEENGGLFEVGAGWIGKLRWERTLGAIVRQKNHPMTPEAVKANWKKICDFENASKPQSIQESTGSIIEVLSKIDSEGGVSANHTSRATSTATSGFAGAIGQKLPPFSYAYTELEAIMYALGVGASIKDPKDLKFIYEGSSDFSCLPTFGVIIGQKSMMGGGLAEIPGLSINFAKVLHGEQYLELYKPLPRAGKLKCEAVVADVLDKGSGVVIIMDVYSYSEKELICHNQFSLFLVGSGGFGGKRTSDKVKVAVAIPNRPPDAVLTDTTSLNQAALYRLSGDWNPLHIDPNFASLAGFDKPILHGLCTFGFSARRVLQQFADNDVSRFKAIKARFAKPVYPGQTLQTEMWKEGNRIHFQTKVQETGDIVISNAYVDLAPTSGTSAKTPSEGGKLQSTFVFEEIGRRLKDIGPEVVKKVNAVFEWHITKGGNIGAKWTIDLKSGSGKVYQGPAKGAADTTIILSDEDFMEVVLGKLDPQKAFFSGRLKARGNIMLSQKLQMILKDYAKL", "protocol": "as §1, §2"}, "[4]": {"biological_target": "T4, EPHX1 (Homo sapiens, UniProt P07099)", "T4 construct": "endogenous in cells; host or cells: HEK293T", "T4 sequence (P07099 whole entry)": "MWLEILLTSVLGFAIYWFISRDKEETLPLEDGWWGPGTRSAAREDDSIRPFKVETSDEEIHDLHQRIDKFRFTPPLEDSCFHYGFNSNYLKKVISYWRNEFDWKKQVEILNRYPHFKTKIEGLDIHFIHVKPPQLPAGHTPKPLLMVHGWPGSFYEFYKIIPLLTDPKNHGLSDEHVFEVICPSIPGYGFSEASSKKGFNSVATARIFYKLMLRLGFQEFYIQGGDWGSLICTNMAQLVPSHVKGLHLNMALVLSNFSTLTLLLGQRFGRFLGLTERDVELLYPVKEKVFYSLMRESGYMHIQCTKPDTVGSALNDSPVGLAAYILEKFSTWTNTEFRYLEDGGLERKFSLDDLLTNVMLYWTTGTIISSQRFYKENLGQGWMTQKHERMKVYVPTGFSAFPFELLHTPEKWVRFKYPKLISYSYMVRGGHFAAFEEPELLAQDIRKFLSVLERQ", "conditions": "all proteins (incl. low confidence identifications)", "protocol": "as §1, §2"}, "[5]": {"biological_target": "T5, SREBF2 (Homo sapiens, UniProt Q12772)", "T5 construct": "endogenous in cells; host or cells: HEK293T", "T5 sequence (Q12772 whole entry)": "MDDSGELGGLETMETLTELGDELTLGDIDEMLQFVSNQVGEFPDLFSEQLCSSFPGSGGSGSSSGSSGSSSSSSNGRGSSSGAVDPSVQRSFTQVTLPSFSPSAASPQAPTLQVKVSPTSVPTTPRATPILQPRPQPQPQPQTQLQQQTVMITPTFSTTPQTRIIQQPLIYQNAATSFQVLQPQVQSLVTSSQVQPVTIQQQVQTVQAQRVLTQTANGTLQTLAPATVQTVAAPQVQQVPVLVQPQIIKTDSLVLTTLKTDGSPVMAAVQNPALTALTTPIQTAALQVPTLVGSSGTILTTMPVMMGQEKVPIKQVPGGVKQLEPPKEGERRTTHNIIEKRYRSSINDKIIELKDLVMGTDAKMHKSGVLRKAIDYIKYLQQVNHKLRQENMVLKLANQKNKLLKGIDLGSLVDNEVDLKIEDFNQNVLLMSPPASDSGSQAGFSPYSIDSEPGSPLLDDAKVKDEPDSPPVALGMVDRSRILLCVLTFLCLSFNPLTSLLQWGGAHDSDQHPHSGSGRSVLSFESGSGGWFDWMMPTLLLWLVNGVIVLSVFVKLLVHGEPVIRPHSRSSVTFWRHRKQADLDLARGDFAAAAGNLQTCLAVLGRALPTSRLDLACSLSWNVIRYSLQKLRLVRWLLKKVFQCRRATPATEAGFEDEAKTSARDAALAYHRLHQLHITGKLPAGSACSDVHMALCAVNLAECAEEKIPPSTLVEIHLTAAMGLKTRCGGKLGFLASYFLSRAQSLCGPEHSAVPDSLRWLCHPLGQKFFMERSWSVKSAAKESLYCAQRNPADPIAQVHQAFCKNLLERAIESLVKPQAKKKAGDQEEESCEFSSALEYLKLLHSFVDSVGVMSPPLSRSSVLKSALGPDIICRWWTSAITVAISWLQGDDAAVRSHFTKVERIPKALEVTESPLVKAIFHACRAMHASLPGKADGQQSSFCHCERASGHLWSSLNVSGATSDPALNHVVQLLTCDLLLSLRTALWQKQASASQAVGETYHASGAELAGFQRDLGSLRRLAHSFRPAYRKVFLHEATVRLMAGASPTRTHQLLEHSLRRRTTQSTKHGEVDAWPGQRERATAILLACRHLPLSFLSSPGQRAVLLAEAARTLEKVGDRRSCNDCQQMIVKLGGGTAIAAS", "conditions": "all proteins (incl. low confidence identifications)", "protocol": "as §1, §2"}, "[6]": {"biological_target": "T6, SEC61G (Homo sapiens, UniProt P60059)", "T6 construct": "endogenous in cells; host or cells: HEK293T", "T6 sequence (P60059 whole entry)": "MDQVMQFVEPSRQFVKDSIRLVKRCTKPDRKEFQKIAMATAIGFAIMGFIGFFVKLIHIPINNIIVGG", "T6 sequence (P61619 whole entry partner)": "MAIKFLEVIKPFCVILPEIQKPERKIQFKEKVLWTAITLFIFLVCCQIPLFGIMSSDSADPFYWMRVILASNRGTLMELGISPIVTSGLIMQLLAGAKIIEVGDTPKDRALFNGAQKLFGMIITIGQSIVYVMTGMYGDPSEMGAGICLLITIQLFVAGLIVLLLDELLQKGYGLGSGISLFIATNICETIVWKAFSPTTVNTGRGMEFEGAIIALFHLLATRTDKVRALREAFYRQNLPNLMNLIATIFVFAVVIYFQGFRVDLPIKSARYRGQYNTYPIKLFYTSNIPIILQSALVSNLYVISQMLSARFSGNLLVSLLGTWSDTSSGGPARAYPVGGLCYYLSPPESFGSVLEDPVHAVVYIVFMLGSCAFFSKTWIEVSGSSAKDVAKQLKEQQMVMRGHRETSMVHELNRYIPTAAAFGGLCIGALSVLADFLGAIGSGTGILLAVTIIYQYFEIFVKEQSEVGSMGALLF", "T6 sequence (P60468 2-96 partner limits assumed)": "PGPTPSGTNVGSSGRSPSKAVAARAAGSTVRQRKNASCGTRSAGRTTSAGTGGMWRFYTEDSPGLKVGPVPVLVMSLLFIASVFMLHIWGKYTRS", "protocol": "as §1, §2"}, "[7]": {"biological_target": "T7, ATL2 (Homo sapiens, UniProt Q8NHH9)", "T7 construct": "endogenous in cells; host or cells: HEK293T", "T7 sequence (Q8NHH9 whole entry)": "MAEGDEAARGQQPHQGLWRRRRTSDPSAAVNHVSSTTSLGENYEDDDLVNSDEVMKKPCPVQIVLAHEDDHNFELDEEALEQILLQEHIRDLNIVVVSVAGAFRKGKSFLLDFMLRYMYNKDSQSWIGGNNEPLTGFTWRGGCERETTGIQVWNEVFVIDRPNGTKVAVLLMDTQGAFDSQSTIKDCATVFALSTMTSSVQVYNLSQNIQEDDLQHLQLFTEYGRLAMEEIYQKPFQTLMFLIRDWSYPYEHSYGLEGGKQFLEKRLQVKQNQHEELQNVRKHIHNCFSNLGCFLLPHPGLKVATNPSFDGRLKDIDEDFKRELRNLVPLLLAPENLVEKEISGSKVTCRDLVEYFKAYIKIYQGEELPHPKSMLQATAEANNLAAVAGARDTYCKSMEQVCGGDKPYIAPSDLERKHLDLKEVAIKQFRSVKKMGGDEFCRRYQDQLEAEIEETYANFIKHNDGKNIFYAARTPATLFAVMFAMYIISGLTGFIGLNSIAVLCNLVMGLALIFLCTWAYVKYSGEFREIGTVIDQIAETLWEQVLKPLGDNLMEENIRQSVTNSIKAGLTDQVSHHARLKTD", "conditions": "all proteins (incl. low confidence identifications)", "protocol": "as §1, §2"}, "[8]": {"biological_target": "T8, CGN1 (Bos taurus, UniProt P23805)", "T8 construct": "host or cells: VLPs from HEK293T supernatant", "T8 sequence (P23805 21-371)": "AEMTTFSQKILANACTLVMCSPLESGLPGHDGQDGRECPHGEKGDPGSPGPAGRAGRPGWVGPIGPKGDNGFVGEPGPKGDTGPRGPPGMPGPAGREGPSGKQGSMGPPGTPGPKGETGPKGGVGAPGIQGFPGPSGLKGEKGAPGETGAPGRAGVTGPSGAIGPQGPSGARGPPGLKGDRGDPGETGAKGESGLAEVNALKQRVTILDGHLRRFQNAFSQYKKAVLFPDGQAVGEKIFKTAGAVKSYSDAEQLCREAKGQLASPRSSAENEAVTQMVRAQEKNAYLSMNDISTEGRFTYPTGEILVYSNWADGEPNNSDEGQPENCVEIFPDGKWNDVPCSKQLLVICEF", "conditions": "all proteins (incl. low confidence identifications)", "protocol": "as §1, §2"}, "[9]": {"biological_target": "T9, TAOK2 (Homo sapiens, UniProt Q9UL54)", "T9 construct": "endogenous in cells; host or cells: HEK293T", "conditions": "all proteins (incl. low confidence identifications)", "protocol": "as §1, §2"}, "[10]": {"biological_target": "T10, CALU (Homo sapiens, UniProt O43852)", "T10 construct": "endogenous in cells; host or cells: HEK293T", "T10 sequence (O43852 20-315)": "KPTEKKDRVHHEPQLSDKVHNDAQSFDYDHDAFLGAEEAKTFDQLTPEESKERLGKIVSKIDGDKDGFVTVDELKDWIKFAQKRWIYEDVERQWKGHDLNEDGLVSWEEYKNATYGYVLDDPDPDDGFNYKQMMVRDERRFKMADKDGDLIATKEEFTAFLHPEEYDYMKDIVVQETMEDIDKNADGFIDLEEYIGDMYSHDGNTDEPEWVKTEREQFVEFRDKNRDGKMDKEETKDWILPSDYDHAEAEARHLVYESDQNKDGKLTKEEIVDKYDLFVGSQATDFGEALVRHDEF", "conditions": "all proteins (incl. low confidence identifications)", "protocol": "as §1, §2"}, "[11]": {"biological_target": "T11, NCS1 (Homo sapiens, UniProt P62166)", "T11 construct": "endogenous in cells; host or cells: HEK293T", "T11 sequence (P62166 whole entry)": "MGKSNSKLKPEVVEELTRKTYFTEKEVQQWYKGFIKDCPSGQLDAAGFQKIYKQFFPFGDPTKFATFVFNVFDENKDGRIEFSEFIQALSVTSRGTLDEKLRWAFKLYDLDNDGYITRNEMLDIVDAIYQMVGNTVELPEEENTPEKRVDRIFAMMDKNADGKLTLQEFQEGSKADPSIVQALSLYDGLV", "conditions": "all proteins (incl. low confidence identifications)", "protocol": "as §1, §2"}, "[12]": {"biological_target": "T12, DCAKD (Homo sapiens, UniProt Q8WVC6)", "T12 construct": "endogenous in cells; host or cells: HEK293T", "T12 sequence (Q8WVC6 whole entry)": "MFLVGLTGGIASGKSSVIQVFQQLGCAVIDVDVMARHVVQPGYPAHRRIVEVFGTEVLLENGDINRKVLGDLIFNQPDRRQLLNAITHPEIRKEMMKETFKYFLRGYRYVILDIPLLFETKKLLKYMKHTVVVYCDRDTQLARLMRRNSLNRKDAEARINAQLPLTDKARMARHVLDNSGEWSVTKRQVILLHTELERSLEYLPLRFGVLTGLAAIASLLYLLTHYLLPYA", "conditions": "all proteins (incl. low confidence identifications)", "protocol": "as §1, §2"}, "[13]": {"conditions": "all proteins (incl. low confidence identifications)"}, "[14]": {"conditions": "proteins identified with >1 peptide (high confidence)"}},
  "data": [
    {"smiles": "CCC(=C(c1ccccc1)c1ccc(OCCN(C)Cc2cn(CCOCCOCCOCCOCCOCCNC(=O)CCC(NC(=O)c3ccc(N(C)Cc4cnc5nc(N)nc(N)c5n4)cc3)C(=O)O)nn2)cc1)c1ccccc1", "note": "(centres unmarked) [MTX-PEG6-tamoxifen]", "values": [
      {"measurement": "Recurrence (x/4)", "setting": "[1]", "value": 1, "unit": "x/4"},
      {"measurement": "Recurrence (x/4)", "setting": "[2]", "value": 1, "unit": "x/4"},
      {"measurement": "Recurrence (x/4)", "setting": "[3]; [13]", "value": 4, "unit": "x/4"},
      {"measurement": "Recurrence (x/4)", "setting": "[3]; [14]", "value": 4, "unit": "x/4"},
      {"measurement": "Recurrence (x/4)", "setting": "[4]", "value": 1, "unit": "x/4"},
      {"measurement": "Recurrence (x/4)", "setting": "[5]", "value": 1, "unit": "x/4"},
      {"measurement": "Recurrence (x/4)", "setting": "[6]; [13]", "value": 2, "unit": "x/4"},
      {"measurement": "Recurrence (x/4)", "setting": "[6]; [14]", "value": 1, "unit": "x/4"},
      {"measurement": "Recurrence (x/4)", "setting": "[7]", "value": 1, "unit": "x/4"},
      {"measurement": "Recurrence (x/4)", "setting": "[8]", "value": 1, "unit": "x/4"},
      {"measurement": "Recurrence (x/4)", "setting": "[9]", "value": 1, "unit": "x/4"},
      {"measurement": "Recurrence (x/4)", "setting": "[10]", "value": 1, "unit": "x/4"},
      {"measurement": "Recurrence (x/4)", "setting": "[11]", "value": 1, "unit": "x/4"},
      {"measurement": "Recurrence (x/4)", "setting": "[12]", "value": 2, "unit": "x/4"}
    ]}
  ]
}
